In patent US20230295103A1 (priority 2020, published 2023):
≈ marks a conversion by molar mass, not a printed value.

Experiments:
[1] = test system: E. coli (ATCC 8739), B. subtilis (ATCC 6633), P. aeruginosa (ATCC 9027), S. aureus (ATCC 6538P), H. pylori (ATCC43504), C. albicans (ATCC 200498); format: cell-based
[2] = test system: large panel of bacteria including Gram+ and Gram- bacteria and Mycobacterium as well as fungi associated to plant infection; format: cell-based
B. cepacia = test: microbe, parasite or virus in culture; format: cell-based; conditions: Burkholderia cepacia, read-out: Minimal Inhibitory Concentration (MIC)
B. mallei = test: microbe, parasite or virus in culture; format: cell-based; conditions: Burkholderia mallei, read-out: Minimal Inhibitory Concentration (MIC)
B. pseudomallei = test: microbe, parasite or virus in culture; format: cell-based; conditions: Burkholderia pseudomallei, read-out: Minimal Inhibitory Concentration (MIC)
[3] = test system: Pseudomonas syringae (DSM 10604); test: microbe, parasite or virus in culture; format: cell-based; conditions: DSM10604, read-out: Minimal Inhibitory Concentration (MIC)
[4] = test system: Streptomyces roietensis (DSM 101729); test: microbe, parasite or virus in culture; format: cell-based; conditions: DSM101729, read-out: Minimal Inhibitory Concentration (MIC)
[5] = test system: human cells A498, BEAS-2B, Caco-2, HaCaT, HepG2, HUVEC, IMR90, N87
[6] = test system: human liver cell line HepG2 (ATCC HB-8065); test: cells; conditions: HepG2, 48 h, read-out: IC50 on the viability of HepG2 cells
[7] = test system: human liver cell line HepG2 (ATCC HB-8065)
[8] = test system: P. aeruginosa (ATCC 9027); format: cell-based, Pseudomonas aeruginosa
Erwina cacticida = conditions: cited from earlier work
Phoma medicaginis = conditions: cited from earlier work

Row | Molecule | MIC (B. cepacia) | MIC (B. mallei) | MIC (B. pseudomallei) | MIC [3] | MIC [4] | other results
1 | CC(=O)Nc1ccc2c(c1)C(=O)/C(=C/c1ccccc1)O2 |  |  |  |  |  | melting point: 241 °C
2 | CC(=O)Nc1ccc2c(c1)C(=O)/C(=C/c1cccc(OCc3ccccc3)c1)O2 [A7, (Z)-N-(2-(3-(benzyloxy)benzylidene)-3-oxo-2,3-dihydrobenzofuran-5-yl)acetamide] | 3.12 to 12.5 µM (≈ 1.2 to 4.82 µg/mL) | 1.5 to 12.5 µM (≈ 0.578 to 4.82 µg/mL) | 1.5 to 12.5 µM (≈ 0.578 to 4.82 µg/mL) | 1.5 to 3.12 µM (≈ 0.578 to 1.2 µg/mL) | 6.25 to 12.5 µM (≈ 2.41 to 4.82 µg/mL) | antimicrobial activity on tested strains (ranking) [1]: the more active; antimicrobial activity, spectrum [2]: confirmed the activity; Therapeutic index (TI) or safe factor (SF) [5]: 38-4017; mean of TI/SF [5]: 370
3 | CC(=O)Nc1ccc2c(c1)C(=O)/C(=C/c1ccc(OCc3ccccc3)c(OCc3ccccc3)c1)O2 [AD-1-49, (Z)-N-(2-(3,4-bis(benzyloxy)benzylidene)-3-oxo-2,3-dihydrobenzofuran-5-yl)acetamide] |  |  |  |  |  | IC50 [6]: > 250 µM
4 | COc1cccc(/C=C2\Oc3ccc(C(=O)O)cc3C2=O)c1 [AD-1-61, (2Z)-2-(3-methoxybenzylidene)-3-oxo-2,3-dihydro-1-benzofuran-5-carboxylic acid] |  |  |  |  |  | IC50 [6]: > 250 µM
5 | CN(C)c1ccc(/C=C2\Oc3ccc(C(=O)O)cc3C2=O)cc1 [AD-1-62, (2Z)-2-[4-(dimethylamino)benzylidene]-3-oxo-2,3-dihydro-1-benzofuran-5-carboxylic acid] |  |  |  |  |  | IC50 [6]: > 250 µM
6 | Nc1ccc2c(c1)C(=O)/C(=C/c1cccc(Oc3ccccc3)c1)O2 [B1, (Z)-5-amino-2-(3-phenoxybenzylidene)benzofuran-3(2H)-one] | 3.12 to 12.5 µM (≈ 1.03 to 4.12 µg/mL) | 1.5 to 12.5 µM (≈ 0.494 to 4.12 µg/mL) | 1.5 to 12.5 µM (≈ 0.494 to 4.12 µg/mL) | 1.5 to 3.12 µM (≈ 0.494 to 1.03 µg/mL) | 6.25 to 12.5 µM (≈ 2.06 to 4.12 µg/mL) | 
7 | CC(=O)Nc1ccc2c(c1)C(=O)/C(=C/c1ccc(OC(C)C)cc1)O2 [B5, (Z)-N-(2-(4-isopropoxybenzylidene)-3-oxo-2,3-dihydrobenzofuran-5-yl)acetamide] | 3.12 to 12.5 µM (≈ 1.05 to 4.22 µg/mL) | 1.5 to 12.5 µM (≈ 0.506 to 4.22 µg/mL) | 1.5 to 12.5 µM (≈ 0.506 to 4.22 µg/mL) | 1.5 to 3.12 µM (≈ 0.506 to 1.05 µg/mL) | 6.25 to 12.5 µM (≈ 2.11 to 4.22 µg/mL) | antimicrobial activity on tested strains (ranking) [1]: the more active; antimicrobial activity, spectrum [2]: confirmed the activity; Therapeutic index (TI) or safe factor (SF) [5]: 38-4017; mean of TI/SF [5]: 103
8 | CC(=O)Nc1ccc2c(c1)C(=O)/C(=C/c1ccc(C(=O)O)cc1)O2 [C4, (Z)-4-((5-acetamido-3-oxobenzofuran-2(3H)-ylidene)methyl)benzoic acid] |  | 1.5 to 12.5 µM (≈ 0.485 to 4.04 µg/mL) | 1.5 to 12.5 µM (≈ 0.485 to 4.04 µg/mL) |  |  | 
9 | COc1c(C)c(O)c(C)c2c1C(=O)/C(=C/c1ccccc1)O2 [C10, (Z)-2-benzylidene-6-hydroxy-4-methoxy-5,7-dimethylbenzofuran-3(2H)-one] |  | 1.5 to 12.5 µM (≈ 0.444 to 3.7 µg/mL) | 1.5 to 12.5 µM (≈ 0.444 to 3.7 µg/mL) |  |  | 
10 | COc1ccc(/C=C2\Oc3cc(N)ccc3C2=O)cc1 [C11, (Z)-6-amino-2-(4-methoxybenzylidene)benzofuran-3(2H)-one] | 3.12 to 12.5 µM (≈ 0.834 to 3.34 µg/mL) | 1.5 to 12.5 µM (≈ 0.401 to 3.34 µg/mL) | 1.5 to 12.5 µM (≈ 0.401 to 3.34 µg/mL) | 1.5 to 3.12 µM (≈ 0.401 to 0.834 µg/mL) | 6.25 to 12.5 µM (≈ 1.67 to 3.34 µg/mL) | antimicrobial activity on tested strains (ranking) [1]: the more active; antimicrobial activity, spectrum [2]: confirmed the activity; Therapeutic index (TI) or safe factor (SF) [5]: 38-4017; mean of TI/SF [5]: 355
11 | O=C1/C(=C/c2ccc(OCc3ccccc3)cc2OCc2ccccc2)Oc2ccccc21 [C12, (Z)-2-(2,4-bis(benzyloxy)benzylidene)benzofuran-3(2H)-one] | 3.12 to 12.5 µM (≈ 1.36 to 5.43 µg/mL) | 1.5 to 12.5 µM (≈ 0.652 to 5.43 µg/mL) | 1.5 to 12.5 µM (≈ 0.652 to 5.43 µg/mL) |  |  | antimicrobial activity on tested strains (ranking) [1]: the more active; antimicrobial activity, spectrum [2]: confirmed the activity; Therapeutic index (TI) or safe factor (SF) [5]: 38-4017; mean of TI/SF [5]: 1169
12 | COc1cc(/C=C2\Oc3ccc(NC(C)=O)cc3C2=O)cc(OC)c1OC [D1, (Z)-N-(3-oxo-2-(3,4,5-trimethoxybenzylidene)-2,3-dihydrobenzofuran-5-yl)acetamide] | 3.12 to 12.5 µM (≈ 1.15 to 4.62 µg/mL) | 1.5 to 12.5 µM (≈ 0.554 to 4.62 µg/mL) | 1.5 to 12.5 µM (≈ 0.554 to 4.62 µg/mL) |  |  | melting point: 254 °C
13 | COc1ccc(/C=C2\Oc3ccccc3C2=O)cc1 [D10, (Z)-2-(4-methoxybenzylidene)benzofuran-3(2H)-one] | 3.12 to 12.5 µM (≈ 0.787 to 3.15 µg/mL) | 1.5 to 12.5 µM (≈ 0.378 to 3.15 µg/mL) | 1.5 to 12.5 µM (≈ 0.378 to 3.15 µg/mL) | 1.5 to 3.12 µM (≈ 0.378 to 0.787 µg/mL) | 6.25 to 12.5 µM (≈ 1.58 to 3.15 µg/mL) | 
14 | O=C1/C(=C/c2ccc(Oc3ccc4oc(-c5ccccc5)cc(=O)c4c3)cc2)Oc2ccccc21 [E5, (Z)-6-(4-((3-oxobenzofuran-2(3H)-ylidene)methyl)phenoxy)-2-phenyl-4H-chromen-4-one] |  |  |  | 1.5 to 3.12 µM (≈ 0.688 to 1.43 µg/mL) | 6.25 to 12.5 µM (≈ 2.87 to 5.73 µg/mL) | antimicrobial activity on tested strains (ranking) [1]: the more active; antimicrobial activity, spectrum [2]: confirmed the activity; Therapeutic index (TI) or safe factor (SF) [5]: 38-4017; mean of TI/SF [5]: 852
15 | O=C(O)c1ccc2c(c1)C(=O)/C(=C/c1ccc(OCc3ccccc3)c(OCc3ccccc3)c1)O2 [MR1065, (Z)-2-(3,4-bis(benzyloxy)benzylidene)-3-oxo-2,3-dihydrobenzofuran-5-carboxylic acid] |  |  |  |  |  | Therapeutic index (TI) or safe factor (SF) [7]: 712.82
16 | O=C(O)CCCCCOc1ccc(/C=C2\Oc3ccccc3C2=O)cc1 [MR1076, (Z)-6-(4-((3-oxobenzofuran-2(3H)-ylidene)methyl)phenoxy)hexanoic acid] |  |  |  |  |  | antimicrobial activity [8]: active; IC50 [6]: > 250 µM
17 | cephalocerone |  |  |  |  |  | growth inhibition (Erwina cacticida): inhibit the growth
18 | hispidol |  |  |  |  |  | inhibition of fungal pathogen (Phoma medicaginis): inhibit
19 | hispidol-4′-O-β-D-glucoside |  |  |  |  |  | inhibition of fungal pathogen (Phoma medicaginis): inhibit
